In patent US6780885B1, “Formulations and methods for administration of pharmacologically or biologically active compounds” (IDEXX Laboratories, Inc., priority 2000, dated 2004):

Tests used:
roundworms (Ascaridia) = experiment: ivermectin formulation in the drinking water of turkeys, roundworm infestation; assay type: in vivo; settings: in three days
Method: (§1) The 2% ivermectin solution is diluted 20-fold to 0.1% in water. From the 0.1%, 3.4 ml is dissolved in 5 liters (QS) of water. The dose to be administered in order to obtain effective treatment of various parasites depends on the size of the fowl to be treated (i.e., their drinking capacity). A 4.5 kg turkey will typically drink 600-1000 ml of water every 24 hours. This corresponds to a dose of 100-150 μgm/kg/day. […] The effective dose to administer to any other type of animal to treat a particular type of parasite can be easily determined by simply varying the dosage until arriving at an effective dose.
A non-aqueous, stable formulation of ivermectin was prepared and diluted into the drinking water of market male turkeys as described above. […] The birds were treated at levels of 10, 50, 100, 200, 250, 500, 1200, and 1400 mg/kg of body weight/day. […] The formulation was effective at completely eliminating any visible signs of roundworm infestation at levels down to […] body weight/day in three days.

cecal worms (Heterakis) = experiment: ivermectin formulation in the drinking water of turkeys, cecal worms; assay type: in vivo; settings: in three days
Method: as §1

For ivermectin, the “dose effective to completely eliminate roundworms (Ascaridia)” value (roundworms (Ascaridia); in drinking water) was 200 mg ivermectin/kg body weight/day, the elimination of roundworms (roundworms (Ascaridia); formulation in drinking water) was “complete elimination” and the “dose effective to completely eliminate cecal worms (Heterakis)” value (cecal worms (Heterakis); in drinking water) was 200 mg ivermectin/kg body weight/day. For the same substance, the “elimination of cecal worms” value (cecal worms (Heterakis); formulation in drinking water) was “complete elimination”.
